pKi: −log10 of the molar value.
biological target: T1, Vesicular acetylcholine transporter (Homo sapiens, UniProt Q16572); assay: Displacement of (-)-[3H]vesamicol from human VAChT expressed in rat PC12 cell membrane after 20 hrs
T1 sequence (Q16572 whole entry): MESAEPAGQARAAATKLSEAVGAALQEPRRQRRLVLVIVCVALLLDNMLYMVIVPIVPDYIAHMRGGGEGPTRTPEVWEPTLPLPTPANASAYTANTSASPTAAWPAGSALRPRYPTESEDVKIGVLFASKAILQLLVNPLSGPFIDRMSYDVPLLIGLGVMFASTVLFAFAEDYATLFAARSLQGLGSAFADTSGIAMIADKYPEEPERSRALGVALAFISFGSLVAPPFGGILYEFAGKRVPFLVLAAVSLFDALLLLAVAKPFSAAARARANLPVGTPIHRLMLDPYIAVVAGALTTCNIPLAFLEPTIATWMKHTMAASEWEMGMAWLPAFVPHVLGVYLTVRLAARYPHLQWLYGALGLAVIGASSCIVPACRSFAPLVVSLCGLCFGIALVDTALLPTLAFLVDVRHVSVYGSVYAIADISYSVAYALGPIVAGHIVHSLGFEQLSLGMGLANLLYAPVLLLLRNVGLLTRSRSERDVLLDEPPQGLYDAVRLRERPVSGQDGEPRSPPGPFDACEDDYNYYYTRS

SMILES | pKi
CN(C)c1ccc(C(=O)C2CCN([C@@H]3Cc4ccccc4C[C@H]3O)CC2)cc1 | 9.03
Cn1c(C(=O)C2CCN([C@@H]3Cc4ccccc4C[C@H]3O)CC2)cccc1=O | 6.74
O=C(c1ncccc1OCCF)C1CCN([C@@H]2Cc3ccccc3C[C@H]2O)CC1 | 7.12
COc1cccnc1C(=O)C1CCN([C@@H]2Cc3ccccc3C[C@H]2O)CC1 | 6.92
Cn1ccc(C(=O)C2CCN([C@@H]3Cc4ccccc4C[C@H]3O)CC2)cc1=O | 7.18
O=C(c1cccnc1)C1CCN([C@@H]2Cc3ccccc3C[C@H]2O)CC1 | 7.62
CNc1ccc(C(=O)C2CCN([C@@H]3Cc4ccccc4C[C@H]3O)CC2)cc1 | 8.52
Cn1cccc1C(=O)C1CCN([C@@H]2Cc3cccc(N)c3C[C@H]2O)CC1 | 5.64
O=C(c1cncc(F)c1)C1CCN([C@@H]2Cc3ccccc3C[C@H]2O)CC1 | 8.00
Cn1cccc1C(=O)C1CCN([C@@H]2Cc3c(N)cccc3C[C@H]2O)CC1 | 7.41
O=C(c1cccnc1F)C1CCN([C@@H]2Cc3ccccc3C[C@H]2O)CC1 | 7.89
O=C(c1ccc(F)nc1)C1CCN([C@@H]2Cc3ccccc3C[C@H]2O)CC1 | 7.59
Cn1cccc1C(=O)C1CCN([C@@H]2Cc3ccccc3C[C@H]2O)CC1 | 7.74
O=C(c1ccc(OCCF)nc1)C1CCN([C@@H]2Cc3ccccc3C[C@H]2O)CC1 | 7.42
Cn1ccc(C(=O)C2CCN([C@@H]3Cc4ccccc4C[C@H]3O)CC2)c1 | 7.57

— BindingDB's records for doi:10.1021/jm400664x (Washington University, 2013)
